# Where two headings read alike, the source gives them in different places.
# What was measured:
# [1] = target: T1, ROCK II (Homo sapiens, UniProt O75116); experiment: Enzyme-based ROCK II inhibitory activity assay (ELISA, Rho kinase assay kit CY-1160); assay type: biochemical; conditions: for inhibition at 10 µM: read-out: Inhibition of ROCKII (%); for IC50: read-out: IC50 against ROCK II
# T1 construct: purchased Cycle, Nagoya, Japan CY-1160
# Experimental: Enzyme-based ROCK II inhibitory activity studies
# The enzyme-based ROCK II inhibitory activity assay was performed using the Rho kinase assay kit (CY-1160, Cycle, Nagoya, Japan). All operation was guided by the manufacturer’s instructions. Briefly, the compounds at 10 µM were pre-incubated in a system wherein ROCK II (0.02 ng/µL) phosphorylates the myosin-binding subunit (MBS) of kinase substrate pre-absorbed onto the microplate in the presence of Mg^2+ and ATP. Then, the system was washed after incubation at 30 ^◦C for 30 min. 100 µL of antibody was added to the wells and then incubated for 30 min at room temperature. 100 µL of substrate reagent and 100 µL stop solution were successively added to each well. The plates were read on the Viewlux in HTRF mode within 30 min.
# All compounds were initially evaluated for their percentage inhibition against ROCK II with a ROCK II assay kit (CY-1160, Cycle, Japan).
# [2] = undesired pharmacokinetic properties, not suitable for non-topical administration; cited from earlier work
# [3] = tested on: ROCK; design: method as in PMID 18638453; conditions: compared with its in-vitro enzyme-based ROCK II activity; cited from earlier work
# [4] = full concentration-response plots
# T1 sequence (O75116 whole entry): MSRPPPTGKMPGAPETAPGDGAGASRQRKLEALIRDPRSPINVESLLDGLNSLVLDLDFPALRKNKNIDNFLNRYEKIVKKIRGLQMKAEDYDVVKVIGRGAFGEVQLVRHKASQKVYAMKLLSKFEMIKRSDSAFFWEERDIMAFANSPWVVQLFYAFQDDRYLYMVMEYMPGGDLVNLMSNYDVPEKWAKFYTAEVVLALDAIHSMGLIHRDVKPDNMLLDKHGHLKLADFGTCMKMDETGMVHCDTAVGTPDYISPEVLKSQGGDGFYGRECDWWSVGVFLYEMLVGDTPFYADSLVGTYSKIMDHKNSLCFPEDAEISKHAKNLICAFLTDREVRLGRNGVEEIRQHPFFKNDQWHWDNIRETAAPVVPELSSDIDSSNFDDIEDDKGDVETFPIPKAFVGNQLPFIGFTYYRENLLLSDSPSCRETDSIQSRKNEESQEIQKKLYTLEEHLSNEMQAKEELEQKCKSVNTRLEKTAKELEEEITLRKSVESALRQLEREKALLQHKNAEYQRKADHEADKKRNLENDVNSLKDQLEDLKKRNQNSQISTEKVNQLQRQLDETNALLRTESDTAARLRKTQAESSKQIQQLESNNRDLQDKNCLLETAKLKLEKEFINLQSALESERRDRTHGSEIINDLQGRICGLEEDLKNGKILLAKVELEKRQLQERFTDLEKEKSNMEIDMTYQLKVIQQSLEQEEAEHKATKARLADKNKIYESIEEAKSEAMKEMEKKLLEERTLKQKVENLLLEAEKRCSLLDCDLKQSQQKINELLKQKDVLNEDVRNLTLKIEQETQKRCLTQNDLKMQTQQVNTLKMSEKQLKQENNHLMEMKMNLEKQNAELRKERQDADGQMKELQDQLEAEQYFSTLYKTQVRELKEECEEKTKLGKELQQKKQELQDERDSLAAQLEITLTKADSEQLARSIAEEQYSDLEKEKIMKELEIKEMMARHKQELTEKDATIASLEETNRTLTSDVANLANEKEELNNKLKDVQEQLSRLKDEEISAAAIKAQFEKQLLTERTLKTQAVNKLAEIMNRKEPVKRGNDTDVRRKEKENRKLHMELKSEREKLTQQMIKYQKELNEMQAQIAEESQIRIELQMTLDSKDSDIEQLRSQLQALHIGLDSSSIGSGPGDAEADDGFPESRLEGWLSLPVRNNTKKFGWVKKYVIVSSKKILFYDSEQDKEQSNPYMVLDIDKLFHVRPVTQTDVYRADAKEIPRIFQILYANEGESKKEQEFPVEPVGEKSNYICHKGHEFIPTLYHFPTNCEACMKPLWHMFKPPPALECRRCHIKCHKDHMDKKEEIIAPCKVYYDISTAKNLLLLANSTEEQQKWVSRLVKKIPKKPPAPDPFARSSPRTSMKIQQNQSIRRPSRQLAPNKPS
melting point [°C],inhibition at 10 µM ([1]; compound concentration 10 µM) [%],"IC50 [1, 4] [nM]",Compound,other results
178 to 180,84.4,20,"O=C(Nc1nc(-c2ccncc2)c(CN2CCOCC2)s1)C1COc2ccccc2O1 (stereo not shown) [4v, N-(5-(morpholinomethyl)-4-(pyridin-4-yl)thiazol-2-yl)-2,3-dihydrobenzo[b] [1,4] dioxine-2-carboxamide]",IC50 ([1]; value stated in text in nM): 20 nM
192 to 195,47.6,,"O=C(Nc1nc(-c2ccncc2)c(CN2CCCC2)s1)c1ccncc1 [4r, N-(4-(Pyridin-4-yl)-5-(pyrrolidin-1-ylmethyl)thiazol-2-yl) isonicotinamide]",
163 to 164,43.5,,"O=C(Nc1nc(-c2ccncc2)c(CN2CCOCC2)s1)c1ccc(Cl)c(Cl)c1 [4p, 3,4-Dichloro-N-(5-(morpholinomethyl)-4-(pyridin-4-yl)thiazol-2-yl) benzamide]",
169 to 171,38.1,,"O=C(Nc1nc(-c2ccncc2)c(CN2CCCCC2)s1)c1cccnc1 [4u, N-(5-(Piperidin-1-ylmethyl)-4-(pyridin-4-yl)thiazol-2-yl) nicotinamide]",
,91.3,10 ± 3,"O=C(Nc1nc(-c2ccncc2)cs1)C1COc2ccccc2O1 (stereo not shown) [II, reference compound]",potency in a cell-based assay [3]: much less potent
175 to 178,58.1,8560,"O=C(Nc1nc(-c2ccncc2)c(CN2CCOCC2)s1)c1ccncc1 [4s, N-(5-(morpholinomethyl)-4-(pyridin-4-yl)thiazol-2-yl) isonicotinamide]",
178 to 180,52.2,9120 ± 2460,"O=C(Nc1nc(-c2ccncc2)c(CN2CCOCC2)s1)c1cccnc1 [4t, N-(5-(Morpholinomethyl)-4-(pyridine-4-yl)thiazol-2-yl) nicotinamide]",

# Second part, the compound before the results:
Compound,melting point [°C],inhibition at 10 µM ([1]; compound concentration 10 µM) [%],"IC50 [1, 4] [nM]",other results
"Cc1ccc(C(=O)Nc2nc(-c3ccncc3)c(CN3CCN(C)CC3)s2)cc1 [4n, 4-Methyl-N-(5-((4-methylpiperazin-1-yl)methyl)-4-(pyridin-4-yl)thiazol-2-yl) benzamide]",148 to 150,42.4,,
"Cc1ccc(C(=O)Nc2nc(-c3cccnc3)c(CN(C)C(C)C)s2)cc1 [4c, N-(5-((i-Propyl(methyl)amino)methyl)-4-(pyridin-3-yl)thiazol-2-yl)-4-methylbenzamide]",,32.8,,
"O=C(Nc1nc(-c2cccnc2)c(CN2CCOCC2)s1)c1ccc(Cl)c(Cl)c1 [4d, 3,4-Dichloro-N-(5-(morpholinomethyl)-4-(pyridin-3-yl)thiazol-2-yl) benzamide]",208 to 210,42.9,,
"CN1CCN(Cc2sc(NC(=O)c3ccc(Cl)c(Cl)c3)nc2-c2cccnc2)CC1 [4e, 3,4-Dichloro-N-(5-((4-methylpiperazin-1-yl)methyl)-4-(pyridin-3-yl)thiazol-2-yl) benzamide]",179 to 181,27.9,,
"O=C(Nc1nc(-c2cccnc2)c(CN2CCCC2)s1)C1COc2ccccc2O1 (stereo not shown) [4k, N-(4-(pyridin-3-yl)-5-(pyrrolidin-1-ylmethyl)thiazol-2-yl)-2,3-dihydrobenzo[b] [1,4] dioxine-2-carboxamide]",181 to 182,61.3,1560 ± 230,
"CN1CCN(Cc2sc(NC(=O)c3ccc(Cl)c(Cl)c3)nc2-c2ccncc2)CC1 [4o, 3,4-Dichloro-N-(5-((4-methylpiperazin-1-yl)methyl)-4-(pyridin-4-yl)thiazol-2-yl) benzamide]",201 to 203,44.8,,
CN(C)CCOc1cc(-c2cn[nH]c2)ccc1NC(=O)[C@H]1Cc2ccccc2CN1 [I],,,,bioavailability [2]: low bioavailability; clearance [2]: high clearance
"O=C(Nc1nc(-c2cccnc2)c(CN2CCOCC2)s1)C1COc2ccccc2O1 (stereo not shown) [4l, N-(5-(morpholinomethyl)-4-(pyridin-3-yl)thiazol-2-yl)-2,3-dihydrobenzo[b] [1,4] dioxine-2-carboxamide]",177 to 179,73.8,1020 ± 70,
"Cc1ccc(C(=O)Nc2nc(-c3ccncc3)c(CN3CCOCC3)s2)cc1 [4m, 4-Methyl-N-(5-(morpholinomethyl)-4-(pyridin-4-yl)thiazol-2-yl) benzamide]",148 to 149,48.6,,
"CN(C)Cc1sc(NC(=O)c2ccncc2)nc1-c1cccnc1 [4h, N-(5-((dimethylamino)methyl)-4-(pyridin-3-yl)thiazol-2-yl) isonicotinamid]",201 to 202,35.3,,
"Cc1ccc(C(=O)Nc2nc(-c3cccnc3)c(CN3CCN(C)CC3)s2)cc1 [4b, 4-Methyl-N-(5-((4-methylpiperazin-1-yl)methyl)-4-(pyridin-3-yl)thiazol-2-yl) benz-amide]",180 to 182,32.7,,
"CC(C)N(C)Cc1sc(NC(=O)c2ccc(Cl)c(Cl)c2)nc1-c1cccnc1 [4f, 3,4-Dichloro-N-(5-((i-propyl(methyl)amino)methyl)-4-(pyridin-3-yl)thiazol-2-yl) benzamide]",171 to 172,34.6,,
N-(5-((4-Methylpiperazin-1-yl) methyl)-4- (pyridin-4-yl) thiazol-2-yl) isonicotinamide [4q],,,,Inhibition of ROCKII (%) ([1]; compound concentration 10 µM): 48.2%
"CN1CCN(Cc2sc(NC(=O)c3ccccc3)nc2-c2cccnc2)CC1 [4g, N-(5-((4-Methylpiperazin-1-yl)methyl)-4-(pyridin-3-yl)thiazol-2-yl) benzamide]",198 to 199,29.6,,
"Cc1ccc(C(=O)Nc2nc(-c3cccnc3)c(CN3CCOCC3)s2)cc1 [4a, 4-Methyl-N-(5-(morpholinomethyl)-4-(pyridin-3-yl)thiazol-2-yl) benzamide]",198 to 199,46.3,,
"CN(C)Cc1sc(NC(=O)C2COc3ccccc3O2)nc1-c1cccnc1 (stereo not shown) [4j, N-(5-((dimethylamino)methyl)-4-(pyridin-3-yl)thiazol-2-yl)-2,3-dihydrobenzo[b] [1,4] dioxine-2-carboxamide]",192 to 196,68.1,960 ± 120,
"O=C(Nc1nc(-c2cccnc2)c(CN2CCOCC2)s1)c1ccncc1 [4i, N-(5-(morpholinomethyl)-4-(pyridin-3-yl)thiazol-2-yl) isonicotinamide]",185 to 187,51.1,9830 ± 1450,

# From PMC8653655, “The Design, Synthesis and Evaluation of Rho-kinase Inhibitory Activity of 4-aryl-thiazole-2-amines” (Iranian Journal of Pharmaceutical Research : IJPR, 2021)
